Measurements as given in patent publication US6605589B1, “Cathepsin inhibitors in cancer treatment” (Parker Hughes Institute, priority 2000, dated 2003).

Legend:
Format in all cases: cell-based, human
DU145 (prostate cancer) = experiment: Quantitative flow cytometric apoptosis detection assay (MC540/PI); details: 0 to 100 μM, FIGS. 1-3
Protocol: (§1) Quantitative flow cytometric apoptosis detection assays were performed on BT-20 (breast cancer), PC-3 (prostate cancer), U373 (glioblastoma), SQ20B (squamous cell carcinoma), HeLa (cervix cancer), and DU145 (prostate cancer). Just prior to the assay, one mg/ml stock solutions of MC540 (Sigma, St. Louis, Mo.) and PI (Sigma, St. Louis, Mo.) were filtered through a 0.22 μm filter and stored at 4° C. in the dark. CATI-1 treated cell lines was harvested, and 1×10^6 cells suspended and stained with 5 μg/ml MC540 and 10 μg/ml propidium iodide (PI) (Uckun et al. (1996) Science, 273: 1096-1100) at 4° C. in the dark for 24 hours. Stained cells were analyzed with a FACStar Plus flow cytometer (Becton Dickinson, San Jose, Calif.) using the 488-nm excitation from an argon laser. MC540 and PI emissions were split with a 600-nm short pass diachronic mirror; a 575-nm band pass filter was placed in front of one photomultiplier tube to measure MC540 emission, and 635-nm band pass filter was used for PI emission. In each experiment approximately 10,000 cells were analyzed by FACS and the percentage of cells at early (MC540 fluorescence only) and advanced (dual MC540 plus PI fluorescence) stages of apoptosis obtained.

[1] = tested on: SQ20B (squamous cell carcinoma); experiment: as above; details: 0 to 100 μM, FIGS. 1-3
Protocol: as §1

HeLa (cervix cancer) = experiment: as above; details: 0 to 100 μM, FIGS. 1-3
Protocol: as §1

PC-3 (prostate cancer) = experiment: as above; details: 0 to 100 μM, FIGS. 1-3
Protocol: as §1

BT-20 (breast cancer) = experiment: as above; details: 0 to 100 μM, FIGS. 1-3
Protocol: as §1

U373 (glioblastoma) = experiment: as above; details: 0 to 100 μM, FIGS. 1-3
Protocol: as §1

BT-20 cells = experiment: TUNEL assay (DNA cleavage); details: 50 μM and 100 μM CATI-1, FIG. 3
Protocol: (§2) DNA cleavage as an indicator of apoptosis was determined using the in situ terminal deoxynucleotidyl transferase (TdT)-mediated dUTP nick-end-labeling method (TUNEL assay) of Boehringer Mannheim (Cell Death Detection Kit) as described in Zhu et al. (1999) Clin. Can. Res., 5:355-360. Briefly, CATI-1 treated cells and control cells were harvested and resuspended in phosphate-buffered saline (PBS) at a density of 5×10^6 cells/ml. Fifty μl of each cell suspension was placed into a PAP Pen (Zymed Laboratories Inc., South San Francisco, Calif.)-circled area on Superfrost/Plus slide (Fisher Scientific, Pittsburgh, Pa.) that was coated for cell adhesion. Cells were allowed to adhere to the slide for 10 minutes, washed with PBS and fixed with a 4% paraformadehyde in PBS solution for 20 minutes. After washing the slides twice with PBS, the cells were permeabilized by treatment with 100 μl of 20 mM SDS in PBS for 10 minutes. […] However, non-apoptotic cells incorporate only insignificant amounts of FITC-labeled dUTP due to the lack of exposed 3′-hydroxyl ends in intact DNA and consequently have much less green fluorescence than apoptotic cells. DNA bound PI emits strong red nuclear fluorescence from all the cells.

SQ20B cells = experiment: TUNEL assay (DNA cleavage); details: 50 μM and 100 μM CATI-1, FIG. 3
Protocol: as §2

MOLT-3 (T-ALL) = experiment: In vitro clonogenic assay; details: for %, inhibition / Mean no, of colonies: 24 hours
Protocol: (§3) In vitro clonogenic assays were carried out to determine the cytotoxic activity of the cathepsin inhibitor I (CATI-1) (Z-Phe-Gly-NHO-Bz) against cancer cells. The cancer cell lines used in the assay were U373 (glioblastoma), BT-20 (breast cancer), SQ20B (squamous cell carcinoma), RS4;11 (pro-B ALL), ALL-1 (pre-pre-B ALL), KM-3, MOLT-3 (T-ALL), JURKAT (T-ALL), K-562 (CML), HL-60 (AML), DAUDI (NHL), RAMOS (NHL) and RAJI (NHL). Each cell line was treated under several concentrations of CATI-1 for 24 hours, washed with serum free medium and resuspended in clonogenic medium having 10% fetal bovine serum and 0.9% methylcellulose. Resuspended cells were plated in duplicate 35-mm Petri dishes at 10,000 to 20,000 cells per dish and cultured at 37° C. in a humidified 5% CO2 atmosphere for 5 to 7 days.
(§4) Images of colonies in each dish were taken by a digital camera (Princeton Instruments, Inc.) linked to a microscope (Nikon Diaphot 200). Colony numbers were determined using an inverted phase microscope and percent inhibition of colony formation determined using the formula:
(§5) % inhibition=(1−(colony number in test sample/colony number in control sample))×100.

RS4;11 (pro-B ALL) = experiment: In vitro clonogenic assay; details: for %, inhibition / Mean no, of colonies: 24 hours
Protocol: as §3, §4, §5

SQ20B (neck cancer) = experiment: In vitro clonogenic assay; details: 24 hours
Protocol: as §3, §4, §5

RAMOS (NHL) = experiment: In vitro clonogenic assay; details: for %, inhibition / Mean no, of colonies: 24 hours
Protocol: as §3, §4, §5

JURKAT (T-ALL) = experiment: In vitro clonogenic assay; details: for %, inhibition / Mean no, of colonies: 24 hours
Protocol: as §3, §4, §5

[2] = read-out: IC50 (colony formation)

IC50 (MOLT-3 (T-ALL); [2]): 5.5 µM
IC50 (RS4;11 (pro-B ALL); [2]): 14.6 µM
IC50 (RAMOS (NHL); [2]): 10.1 µM
IC50 (JURKAT (T-ALL); [2]): 14.5 µM
SMILES: O=C(CNC(=O)[C@H](Cc1ccccc1)NC(=O)OCc1ccccc1)NOC(=O)c1ccccc1 [CATI-1, Z-Phe-Gly-NHO-Bz]
induction of apoptosis (DU145 (prostate cancer)): induces apoptosis
induction of apoptosis [1]: induces apoptosis
induction of apoptosis (HeLa (cervix cancer)): induces apoptosis
induction of apoptosis (PC-3 (prostate cancer)): induces apoptosis
induction of apoptosis (BT-20 (breast cancer)): induces apoptosis
induction of apoptosis (U373 (glioblastoma)): induces apoptosis
DNA fragmentation (TUNEL) (BT-20 cells): nuclear green fluorescence consistent with DNA fragmentation
DNA fragmentation (TUNEL) (SQ20B cells): nuclear green fluorescence consistent with DNA fragmentation
%, inhibition (MOLT-3 (T-ALL); CATI-1 10 uM): 90.8%
Mean no, of colonies (MOLT-3 (T-ALL); CATI-1 10 uM): 194 (124, 264)
%, inhibition (MOLT-3 (T-ALL); CATI-1 20 uM): 99.1%
Mean no, of colonies (MOLT-3 (T-ALL); CATI-1 20 uM): 18 (16, 20)
%, inhibition (MOLT-3 (T-ALL); CATI-1 35 uM): 100%
Mean no, of colonies (MOLT-3 (T-ALL); CATI-1 35 uM): 0 (0, 0)
%, inhibition (RS4;11 (pro-B ALL); CATI-1 10 uM): 10.6%
Mean no, of colonies (RS4;11 (pro-B ALL); CATI-1 10 uM): 2676 (2160, 3192)
%, inhibition (RS4;11 (pro-B ALL); CATI-1 20 uM): 96.8%
Mean no, of colonies (RS4;11 (pro-B ALL); CATI-1 20 uM): 96 (116, 76)
%, inhibition (RS4;11 (pro-B ALL); CATI-1 35 uM): 100%
Mean no, of colonies (RS4;11 (pro-B ALL); CATI-1 35 uM): 0 (0, 0)
%, inhibition (SQ20B (neck cancer); CATI-1 50 uM): 40%
Mean no, of colonies (SQ20B (neck cancer); CATI-1 50 uM): 1838 (1732, 1944)
%, inhibition (SQ20B (neck cancer); CATI-1 100 uM): 90%
Mean no, of colonies (SQ20B (neck cancer); CATI-1 100 uM): 306 (280, 332)
%, inhibition (RAMOS (NHL); CATI-1 10 uM): 47.1%
Mean no, of colonies (RAMOS (NHL); CATI-1 10 uM): 1442 (1344, 1540)
%, inhibition (RAMOS (NHL); CATI-1 20 uM): 78.2%
Mean no, of colonies (RAMOS (NHL); CATI-1 20 uM): 594 (660, 528)
%, inhibition (RAMOS (NHL); CATI-1 35 uM): 100%
Mean no, of colonies (RAMOS (NHL); CATI-1 35 uM): 0 (0, 0)
%, inhibition (JURKAT (T-ALL); CATI-1 10 uM): 10.0%
Mean no, of colonies (JURKAT (T-ALL); CATI-1 10 uM): 5110 (5260, 4960)
%, inhibition (JURKAT (T-ALL); CATI-1 20 uM): 98.9%
Mean no, of colonies (JURKAT (T-ALL); CATI-1 20 uM): 64 (40, 88)
%, inhibition (JURKAT (T-ALL); CATI-1 35 uM): 100%
Mean no, of colonies (JURKAT (T-ALL); CATI-1 35 uM): 0 (0, 0)
